Test results published in ChEMBL document CHEMBL5505988, “Thiadiazole-, selenadiazole- and triazole-fused anthraquinones as G-quadruplex targeting anticancer compounds” (Eur J Med Chem, 2024).
Activity calls are given as the source filed them. The rule behind the calls is not given here.

Tested on: Quadruplex DNA
Experiment: Stabilization of c-Kit G4 DNA (unknown origin) by FRET assay
Format: nucleic-acid assay

Activity: Active
SMILES: Cl.Cl.NCCNc1c2c(c(NCCN)c3n[se]nc13)C(=O)c1ccccc1C2=O
